The values that follow come from paper PMC9783573, “Introduction of a SiFA Moiety into the D-Glutamate Chain of DOTA-PP-F11N Results in Radiohybrid-Based CCK-2R-Targeted Compounds with Improved Pharmacokinetics In Vivo” (Pharmaceuticals, 2022).

The target in data set [1] is T1, CCK-2R (Rattus norvegicus, UniProt P30553).
T1 construct: CCK-2R expressing rat pancreatic cancer cells AR42J (CLS GmbH, Eppelheim,; host or cells: AR42J rat pancreatic cancer cells
T1 sequence (P30553 1-452): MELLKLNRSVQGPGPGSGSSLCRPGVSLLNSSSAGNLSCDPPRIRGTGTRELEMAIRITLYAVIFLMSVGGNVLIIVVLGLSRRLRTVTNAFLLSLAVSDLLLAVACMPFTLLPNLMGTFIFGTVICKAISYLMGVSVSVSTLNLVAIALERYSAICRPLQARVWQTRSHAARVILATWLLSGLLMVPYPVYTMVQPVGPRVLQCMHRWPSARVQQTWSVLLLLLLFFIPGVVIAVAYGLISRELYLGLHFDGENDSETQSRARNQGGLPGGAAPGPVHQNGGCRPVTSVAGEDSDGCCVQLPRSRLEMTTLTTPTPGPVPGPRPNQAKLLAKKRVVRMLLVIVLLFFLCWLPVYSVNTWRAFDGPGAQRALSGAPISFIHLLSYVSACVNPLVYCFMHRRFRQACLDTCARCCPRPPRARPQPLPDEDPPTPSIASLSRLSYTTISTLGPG
Briefly: CCK-2R-mediated internalisation and total cell uptake on AR42J cells. It counts as cell-based. Particulars: for Total cell uptake (%) / Internalisation Values (%): % of applied activity, AR42J cells, 37 °C, 0.25 pmol/well; for Internalisation Values (%): corrected for non-specific binding; for Internalisation Values (% of reference): % of the reference [177Lu]Lu-DOTA-PP-F11N. As for the experimental part:
Figure 3 (a) CCK-2R-mediated internalisation ([…]) on AR42J cells as percent (%) of the applied activity (incubation at 37 °C for 1, 2, 4 and 6 h, RPMI 1640, 5 mM L-Gln, 5 mL non-essential amino acids (100×), 10% FCS + 5% BSA (v/v), 3.0 × 10^5 cells/mL/well). (b) CCK-2R mediated internalisation (% of the reference [^177Lu]Lu-DOTA-PP-F11N) of [^177Lu]Lu-CP04 (grey), [^177Lu]Lu-(R)-DOTAGA-rhCCK-9 (red) and [^177Lu]Lu-(R)-DOTAGA-rhCCK-16 (green) after incubation for 6 h.
Internalisation studies of the ^177Lu-labelled conjugates (0.3 pmol) were performed on AR42J cells (3.0 × 10^5 cells per 1 mL/well) at 37 °C for 1, 2, 4 and 6 h (n = 3). Data were corrected for non-specific binding (competition by 10^−4 M [^natLu]Lu-DOTA-PP-F11N).
Cell Culture. CCK-2R expressing rat pancreatic cancer cells AR42J (CLS GmbH, Eppelheim, Germany) were cultivated in monolayers in CELLSTAR ® cell culture flasks acquired from Greiner Bio-One GmbH (Frickenhausen, Germany) at 37 °C in a humidified atmosphere (5% CO2) using a HERAcell 150i-Incubator (Thermo Fisher Scientific Inc., Waltham, United States). As nutrient medium RPMI 1640 medium, supplemented with 5 mM L-Gln 5 mL non-essential amino acids (100×) and 10% FCS, was used. Furthermore, a Dulbecco’s PBS solution with 0.1% EDTA (v/v) was applied to detach the cells for cell passaging. The detached cells were counted using a Neubauer hemocytometer ( Paul Marienfeld, Lauda-Königshofen, Germany). In addition, all operations under sterile conditions were accomplished using a MSC-Advantage safety workbench (Thermo Fisher Scientific Inc., Waltham, United States). […]
Internalisation Studies. For the determination of the internalisation kinetics of the various peptides, AR42J cells (3.0 × 10^5 cells/well) were seeded into polylysine coated 24-well plates adding 1 mL of nutrient medium. Afterwards, the cells were incubated for 24 ± 2 h at 37 °C in a humidified atmosphere […]
On the day of the experiment, the medium was removed, and each well was washed with nutrient medium (300 µL). Afterwards 200 µL of nutrient medium, 25 µL of the 177Lu-labeled peptide (0.3 pmol, n = 6) and either 25 µL of nutrient medium for internali sation studies (n = 3) or 25 µL of [natLu]Lu-DOTA-PP-F11N ([…]) for competition studies (n = 3) were added. Thereafter, the assay was incubated for various time points (1, 2, 4and 6 h) at 37 °C in a humidified atmosphere (5% CO2). After incubation, the cells were put on ice for at least 1 min to stop internalisation kinetics and the supernatant was collected. Then, the cells were washed with an ice-cold nutrient medium (300 µL) and both fractions were unified. For the acid wash, 300 µL of an ice-cold glycine buffer ([…] lysis of the cells with NaOH (300 μL, 1 N) for 15 min, the respective wells were washed with NaOH (300 μL, 1 N) and both fractions were unified. The radioactivity of the supernatant, the acid wash and the lysed fractions were quantified using a γ-counter.

The subject of data set [2] is AR42J tumour-bearing CB17-SCID mice. Briefly: Biodistribution at 24 h p.i. in AR42J tumour-bearing CB17-SCID mice. The conditions noted are these: vs [177Lu]Lu-DOTA-PP-F11N. It counts as in vivo. As to the method:
Figure 4 Biodistribution of the reference compound, [^177Lu]Lu-DOTA-PP-F11N (blue), the α-linked [^177Lu]Lu-(R)-DOTAGA-rhCCK-9 (red) and the γ-linked [^177Lu]Lu-(R)-DOTAGA-rhCCK-16 (green) in selected organs (%ID/g) at 24 h p.i. in AR42J tumour-bearing CB17-SCID mice (100 pmol each, n = 4). Data is expressed as mean ± SD.
All animal experiments were conducted in accordance with general animal welfare regulations in Germany (German animal protection act, in the edition of the announcement, dated 18 May 2006, as amended by Article 280 of 19 June 2020, approval no. ROB-55.2-1-2532.Vet_02-18-109 by the General Administration of Upper Bavaria) and the institutional guidelines for the care and use of animals. CB17-SCID mice of both genders and aged 2–12 months (Charles River Laboratories International Inc., Sulzfeld, Germany) were allowed to acclimate at the in-house animal facility for at least one week prior to tumour cell inoculation was performed. Tumour xenografts were generated using AR42J cells (5.0 × 10^6 cells per 200 µL) suspended in a 1/1 mixture (v/v) of RPMI 1640 medium and Cultrex® Basement Membrane Matrix Type 3 (Trevigen, Gaithersburg, MD, USA). This suspension was inoculated subcutaneously onto the right shoulder and animals were used when tumour volume was >100 mm^3 (1–2 week after inoculation). Exclusion criteria for animals from an experiment were either weight loss higher than 20%, a tumour size above 1500 mm^3, an ulceration of the tumour, respiratory distress or a change of behaviour. None of these criteria applied to any animal from the experiment. Neither randomisation nor blinding was applied in the allocation of the experiments. Health status is SPF according to FELASA.
For biodistribution studies, the ^177Lu-labelled compound (approx. 2–3 MBq, 100 pmol) was injected into a lateral tail vein (n = 4) of anesthetised (2% isoflurane) AR42J tumour-bearing CB-17-SCID mice. At 24 h post-injection (p.i.), the mice were euthanised. Thereafter, the pertinent organs were removed, weighed and measured using a γ-counter.

Non-standard residues stand in square brackets, D forms with d. Residues, ends and D or L forms follow the SMILES beside them. *: point of attachment. X1 = O=C(O)CN1CCN(CC(=O)O)CCN([C@H](CCC(=O)*)C(=O)O)CCN(CC(=O)O)CC1; Benzoyl(4-SiFtBu2) = CC(C)(C)[Si](F)(c1ccc(C(=O)*)cc1)C(C)(C)C; Nle = CCCC[C@H](N)C(=O)O; dDap = NC[C@@H](N)C(=O)O

As to `CCCC[C@H](NC(=O)[C@H](Cc1c[nH]c2ccccc12)NC(=O)CNC(=O)[C@H](Cc1ccc(O)cc1)NC(=O)[C@H](C)NC(=O)[C@@H](CCC(=O)O)NC(=O)[C@@H](CCC(=O)O)NC(=O)[C@@H](CCC(=O)O)NC(=O)[C@@H](CCC(=O)O)NC(=O)[C@@H](CCC(=O)O)NC(=O)[C@@H](CCC(=O)O)NC(=O)[C@@H](CCC(=O)O)NC(=O)[C@@H](CCC(=O)O)NC(=O)[C@@H](CNC(=O)c1ccc([Si](F)(C(C)(C)C)C(C)(C)C)cc1)NC(=O)CC[C@H](C(=O)O)N1CCN(CC(=O)O)CCN(CC(=O)O)CCN(CC(=O)O)CC1)C(=O)N[C@@H](CC(=O)O)C(=O)N[C@@H](Cc1ccccc1)C(N)=O` [[nat/177Lu]Lu-(R)-DOTAGA-rhCCK-9, metal not drawn] (X1-[dDap](Benzoyl(4-SiFtBu2))[dE][dE][dE][dE][dE][dE][dE][dE]AYGW[Nle]DF-NH2), the “Total cell uptake (%)” value was determined as 2.25 ± 0.23% in data set [1] (1 h), 3.46 ± 0.56% in data set [1] (2 h), 8.31 ± 0.59% in data set [1] (4 h) and 13.4 ± 0.7% in data set [1] (6 h). The “Internalisation Values (%)” value in data set [1] (1 h) came to 2.08 ± 0.12%; in data set [1] (2 h) it was 3.44 ± 0.55%; in data set [1] (4 h), 8.01 ± 0.53%; in data set [1] (6 h), 13.2 ± 0.5%. Also, in data set [1] (6 h), the “Internalisation Values (% of reference)” value was 65.7 ± 2.5 % of reference. The “fold higher activity levels in the tumour than the reference ligand” value in data set [2] is given as 3 fold.
Take `CCCC[C@H](NC(=O)[C@H](Cc1c[nH]c2ccccc12)NC(=O)CNC(=O)[C@H](Cc1ccc(O)cc1)NC(=O)[C@H](C)NC(=O)CC[C@@H](NC(=O)CC[C@@H](NC(=O)CC[C@@H](NC(=O)CC[C@@H](NC(=O)CC[C@@H](NC(=O)CC[C@@H](NC(=O)[C@@H](CNC(=O)c1ccc([Si](F)(C(C)(C)C)C(C)(C)C)cc1)NC(=O)CC[C@H](C(=O)O)N1CCN(CC(=O)O)CCN(CC(=O)O)CCN(CC(=O)O)CC1)C(=O)O)C(=O)O)C(=O)O)C(=O)O)C(=O)O)C(=O)O)C(=O)N[C@@H](CC(=O)O)C(=O)N[C@@H](Cc1ccccc1)C(N)=O` [[nat/177Lu]Lu-(R)-DOTAGA-rhCCK-16, metal not drawn]: the “Total cell uptake (%)” value in data set [1] (1 h) came to 8.37 ± 0.07%; in data set [1] (2 h), 14.4 ± 1.3%; in data set [1] (4 h), 23.6 ± 2.8%; in data set [1] (6 h), 32.8 ± 2.3%. In addition, the “Internalisation Values (%)” value in data set [1] (1 h) is 7.63 ± 0.13%; in data set [1] (2 h) it was 14.0 ± 1.3%; in data set [1] (4 h), 23.2 ± 2.7%; in data set [1] (6 h), 32.2 ± 2.1%. Besides, the “Internalisation Values (% of reference)” value in data set [1] (6 h) was 135 ± 9 % of reference. Further, the “fold higher activity levels in the tumour than the reference ligand” value in data set [2] came to 8 fold.
With `CSCC[C@H](NC(=O)[C@H](Cc1c[nH]c2ccccc12)NC(=O)CNC(=O)[C@H](Cc1ccc(O)cc1)NC(=O)[C@H](C)NC(=O)[C@@H](CCC(=O)O)NC(=O)[C@@H](CCC(=O)O)NC(=O)[C@@H](CCC(=O)O)NC(=O)[C@@H](CCC(=O)O)NC(=O)[C@@H](CCC(=O)O)NC(=O)[C@@H](CCC(=O)O)NC(=O)CN1CCN(CC(=O)O)CCN(CC(=O)O)CCN(CC(=O)O)CC1)C(=O)N[C@@H](CC(=O)O)C(=O)N[C@@H](Cc1ccccc1)C(N)=O` [[nat/177Lu]Lu-CP04, metal not drawn, reference compound], the figures for the “Total cell uptake (%)” value in data set [1] (1 h), in data set [1] (2 h) and in data set [1] (4 h) were 6.00 ± 0.42%, 10.0 ± 0.4% and 16.5 ± 0.9%, respectively. Besides, the “Internalisation Values (%)” value is reported as 5.16 ± 0.44% in data set [1] (1 h), 9.33 ± 0.36% in data set [1] (2 h), 15.4 ± 0.7% in data set [1] (4 h) and 20.5 ± 0.5% in data set [1] (6 h). The “Internalisation Values (% of reference)” value in data set [1] (6 h) is 91.6 ± 2.4 % of reference.
`CCCC[C@H](NC(=O)[C@H](Cc1c[nH]c2ccccc12)NC(=O)CNC(=O)[C@H](Cc1ccc(O)cc1)NC(=O)[C@H](C)NC(=O)[C@@H](CCC(=O)O)NC(=O)[C@@H](CCC(=O)O)NC(=O)[C@@H](CCC(=O)O)NC(=O)[C@@H](CCC(=O)O)NC(=O)[C@@H](CCC(=O)O)NC(=O)[C@@H](CCC(=O)O)NC(=O)CN1CCN(CC(=O)O)CCN(CC(=O)O)CCN(CC(=O)O)CC1)C(=O)N[C@@H](CC(=O)O)C(=O)N[C@@H](Cc1ccccc1)C(N)=O` [[nat/177Lu]Lu-DOTA-PP-F11N, metal not drawn, reference compound]: the “Total cell uptake (%)” value in data set [1] (1 h) was 7.03 ± 1.45%; in data set [1] (2 h), 10.6 ± 1.5%; in data set [1] (4 h), 18.5 ± 2.5%; in data set [1] (6 h), 23.5 ± 1.4%. The “Internalisation Values (%)” value is given as 6.44 ± 0.32% in data set [1] (1 h), 10.1 ± 0.4% in data set [1] (2 h), 17.5 ± 1.0% in data set [1] (4 h) and 22.4 ± 0.6% in data set [1] (6 h).
